Key:
[1] = tested on: primary cultured rat hepatocytes
Experimental: Hepatocytes isolated from rat were inoculated in a collagen-coated 24 well plate and was incubated in a CO2 incubator at 37° C. for 24 hours. Then, a certain concentration of each of the test compounds was added, and the cells were again incubated for 24 hours. The cells were then incubated in a 0.4% neutral red containing medium for 4 hours and washed once with phosphate buffer. 0.5 ml of a solution of 1% acetic acid-50% ethanol was added to the cells, which were let stand. 200 ul of the cell sample was taken and absorbance was measured at 570 nm. The cytotoxicity assay performed on hepatocytes was measured as 25% toxic concentration (TC25, uM). Then, the safety index, i.e. the TC25 value in the cytotoxicity assay in hepatocyte/the EC50 value in the triglyceride accumulation assay, was calculated.

[2] = tested on: mice with diabetes (KK/Ay); assay: Blood glucose- and blood lipid-lowering action in mice with diabetes; type: in vivo; conditions: male KK/Ay mice, daily oral administration for 5 days; for Blood glucose (ED25): dose reducing blood glucose by 25%; for Triglyceride (ED25): dose reducing triglyceride by 25%
Experimental: Male mice with diabetes (KK/Ay: 10 weeks old, 5 animals/group) were housed and given free access to water and food. The animals received a daily oral administration of the test compounds for 5 days. After the last dose, a blood sample was drawn via the orbital sinus.
The plasma was analyzed for blood glucose content using the Glucose-E kit (YEONGDONG PHARMACEUTICAL CO. LTD., Korea), and for triglyceride content using the Triglyceride kit (YEONGDONG PHARMACEUTICAL CO. LTD., Korea).

3T3-L1 cells = assay: Triglyceride accumulation assay; type: cell-based; conditions: 4 days with compound, concentration giving 50% of maximum enhancement of rosiglitazone activation
Experimental: 2) Triglyceride accumulation assay (in 3T3-L1 cells)
Undifferentiated adipocyte 3T3-L1 cells were inoculated in a 24-well plate and cultivated in a CO2 incubator at 37° C. To induce differentiation of the undifferentiated adipocytes, the cells were then incubated in a differentiation medium for 48 hours. After adding a certain concentration of each of the test compounds to the differentiation medium, the cells were again incubated for 4 days. Then, the final cell sample was placed into 200 μl of 2-propanol. The amount of triglyceride in the cells were measured by Triglyceride Kit [YEONGDONG PHARMACEUTICAL CO. LTD., Korea] commercially available.

[3] = tested on: differentiated 3T3-L1 cell; assay: 2-Deoxy-D-[2,6-3H] glucose uptake assay; type: cell-based; conditions: differentiated 3T3-L1 cells, 24 h with compound, 0.5 nM insulin; concentration giving 50% of maximum enhancement of insulin activation; read-out: 2-deoxyglucose uptake (EC50 nM)
Experimental: 1) 2-Deoxy-D-[2,6-3H] glucose uptake assay (in differentiated 3T3-L1 cell)
Undifferentiated adipocyte 3T3-L1 cells were inoculated in a 24-well plate and cultivated in a CO2 incubator at 37° C. To induce differentiation of the undifferentiated adipocytes, the cells were then incubated in a differentiation medium. After adding a certain concentration of each of the test compounds to the medium, the cells were again incubated for 24 hours. After removing the medium, the cells were washed with phosphate buffer, and 0.5 nM of insulin in phosphate buffer was added to the washed cells, followed by incubation for 40 minutes. Then, 0.5 uCi of 2-deoxy-D-[2,6-3H] glucose per well was again added to the cells, which were let stand for 4 minutes. Then, the cells were washed with phosphate buffer, and cell lysis buffer was added, so as to dissolve the cell membranes. The cell sample was placed into a liquid scintillation cocktail solution. The radioactivity of the sample was counted by a liquid scintillation counter.

| Substance | Cytotoxicity in hepatocyte (TC25 uM) [1] | Safety index (TC25 nM/EC50 nM) [1] | Blood glucose (ED25) [2] | Triglyceride (ED25) [2] | EC50 (3T3-L1 cells) | EC50 [3] |
| --- | --- | --- | --- | --- | --- | --- |
| 5-(4-[2-(N-methyl-N-(2-(4-thiophenoxy)pyridinyl)amino)ethoxy]benzyl)-2,4-thiazolidinedione [Ex. 37] | 95000 nM | 79167 | 0.22 mg/kg | 1.4 mg/kg | 1.2 nM | 2.8 nM |
| 5-(4-[2-(N-methyl-N-(2-(4-anilinyl)pyridinyl)amino)ethoxy]benzylidene)-2,4-thiazolidinedione [Ex. 19] | 81000 nM | 4030 | 3.8 mg/kg | 15.6 mg/kg | 20.1 nM | 48.2 nM |
| 5-(4-[2(N-methyl-N-(6-(4-anilinyl)pyrimidinyl)amino)ethoxy]benzyl)-2,4-thiazolidinedione [Ex. 21] | 81000 nM | 10800 | 2.6 mg/kg | 6.2 mg/kg | 7.5 nM | 12.8 nM |
| 5-(4-[2(N-methyl-N-(6-(4-thiophenoxy)pyrimidinyl)amino)ethoxy]benzyl)-2,4-thiazolidinedione [Ex. 32] | 89000 nM | 27813 | 1.5 mg/kg | 12.3 mg/kg | 3.2 nM | 5.9 nM |
| 5-(4-[2-(N-methyl-N-(2-(4-anilinyl)pyridinyl)amino)ethoxy]benzyl)-2,4-thiazolidinedione [Ex. 38] | 71000 nM | 12909 | 1.5 mg/kg | 7.8 mg/kg | 5.5 nM | 10.5 nM |

— patent publication US6787551B2, “Thiazolidinedione derivatives and pharmaceutical composition comprising the same” (Chong Kun Dang Pharmaceutical Corporation, priority 2002, dated 2004)
